Assays:
[1] = target: T1, 5-hydroxytryptamine receptor 2C (Rattus norvegicus, UniProt P08909); experiment: Binding affinity against 5-hydroxytryptamine 1C receptor
T1 sequence (P08909 whole entry): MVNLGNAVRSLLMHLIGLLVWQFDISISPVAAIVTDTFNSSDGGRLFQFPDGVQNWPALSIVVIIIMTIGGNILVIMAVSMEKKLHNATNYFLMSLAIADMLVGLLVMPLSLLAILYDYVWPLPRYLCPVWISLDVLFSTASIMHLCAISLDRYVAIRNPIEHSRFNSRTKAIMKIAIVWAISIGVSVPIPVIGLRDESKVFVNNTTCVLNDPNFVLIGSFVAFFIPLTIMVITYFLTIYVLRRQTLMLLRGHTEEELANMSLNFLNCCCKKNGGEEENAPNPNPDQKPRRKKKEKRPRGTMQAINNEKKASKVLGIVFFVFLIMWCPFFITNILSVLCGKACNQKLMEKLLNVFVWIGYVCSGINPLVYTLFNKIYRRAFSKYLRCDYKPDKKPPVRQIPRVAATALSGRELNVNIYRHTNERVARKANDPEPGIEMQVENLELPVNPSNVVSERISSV

[2] = target: T2, Serotonin 2 (5-HT2) receptor (Rattus norvegicus, UniProt P30994+P08909+P14842); experiment: Binding affinity against 5-hydroxytryptamine 2 receptor using [125I]DOI as radioligand.; assay type: protein assay
[3] = target: T2, Serotonin 2 (5-HT2) receptor; experiment: Binding affinity against 5-hydroxytryptamine 2 receptor using [3H]ket as radioligand.; assay type: protein assay
[4] = target: T3, 5-hydroxytryptamine receptor 1D (Cavia porcellus, UniProt Q60484); experiment: Binding affinity against 5-hydroxytryptamine 1D receptor
T3 sequence (Q60484 whole entry): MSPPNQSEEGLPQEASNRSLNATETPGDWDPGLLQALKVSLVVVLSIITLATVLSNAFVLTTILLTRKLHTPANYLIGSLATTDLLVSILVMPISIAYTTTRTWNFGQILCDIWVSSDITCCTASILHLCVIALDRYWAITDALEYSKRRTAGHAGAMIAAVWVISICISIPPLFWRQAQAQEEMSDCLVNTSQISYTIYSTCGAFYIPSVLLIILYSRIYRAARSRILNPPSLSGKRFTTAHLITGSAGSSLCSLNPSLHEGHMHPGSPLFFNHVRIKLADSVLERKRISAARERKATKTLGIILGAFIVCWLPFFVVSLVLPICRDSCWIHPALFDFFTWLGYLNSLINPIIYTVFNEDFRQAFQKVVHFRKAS

[5] = target: 5-hydroxytryptamine receptor 1B (Homo sapiens, UniProt P28222); experiment: Binding affinity against 5-hydroxytryptamine 1B receptor
Sequence of 5-hydroxytryptamine receptor 1B (P28222 whole entry): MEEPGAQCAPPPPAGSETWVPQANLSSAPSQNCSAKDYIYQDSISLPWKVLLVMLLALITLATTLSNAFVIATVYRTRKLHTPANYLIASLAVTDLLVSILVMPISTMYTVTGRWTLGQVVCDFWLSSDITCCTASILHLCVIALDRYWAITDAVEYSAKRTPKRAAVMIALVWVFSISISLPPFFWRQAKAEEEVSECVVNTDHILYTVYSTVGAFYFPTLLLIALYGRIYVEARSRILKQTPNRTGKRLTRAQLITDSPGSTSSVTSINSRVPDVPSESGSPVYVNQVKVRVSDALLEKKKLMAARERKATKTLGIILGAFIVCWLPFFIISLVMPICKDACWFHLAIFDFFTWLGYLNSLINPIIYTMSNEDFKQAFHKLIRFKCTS

[6] = target: T3, 5-hydroxytryptamine receptor 1D; experiment: Effect on forskolin stimulated adenylate cyclase activity at 5-HT1D receptor of guinea pig substantia nigra.; assay type: functional

`COc1ccc2[nH]cc(C[C@@H]3CCCN3C)c2c1` gave an IC50 [1] of 1200 nM, an IC50 [2] of 680 nM and an IC50 [3] of over 8400 nM. For the same compound, the IC50 [4] was 420 nM and the IC50 [5] was 5800 nM.

Work on `COc1ccc2[nH]cc(C[C@H]3CCCN3C)c2c1` yielded an EC50 [6] of 43 nM, an IC50 [1] of 33 nM and an IC50 [2] of 17 nM. It also gave an IC50 [3] of 730 nM, an IC50 [4] of 24 nM and an IC50 [5] of 830 nM.

`COc1ccc2[nH]cc(CCN(C)C)c2c1` [MEBUFOTENIN] showed an IC50 [4] of 49 nM.

`NCCc1c[nH]c2ccc(O)cc12` [SEROTONIN] was tested, and the EC50 [6] was 5.2 nM and the IC50 [4] was 3 nM.

— ChEMBL document CHEMBL1126097 (J Med Chem, 1992)
